Data as given in article PMC10791743, “Selective CK1α degraders exert antiproliferative activity against a broad range of human cancer cell lines” (Nature Communications, 2024).

Assays:
102 cell lines [1] = assay: Oncolines viability of 120 reference anti-cancer agents; format: cell-based, human
Protocol: Pearson correlations were calculated between SJ3149 ^10log IC50 values and those of the 120 reference agents, to determine the similarity of compound IC50 fingerprints.

102 cell lines [2] = details: cited from earlier work
102 cell lines [3] = assay: Oncolines viability of 120 reference anti-cancer agents; format: cell-based, human; remark: listed apart in the source

Compound: COc1ccc(C2=N[C@@H](c3ccc(Cl)cc3)[C@@H](c3ccc(Cl)cc3)N2C(=O)N2CCNC(=O)C2)c(OC(C)C)c1 [Nutlin-3a]
- IC50 (102 cell lines [1]; G-361, Melanoma): 2.53 µM
- IC50 (102 cell lines [1]; JAR, Gestational choriocarcinoma): 7.25 µM
- IC50 (102 cell lines [1]; KG-1, Adult acute myeloid leukemia): > 31.6 µM
- IC50 (102 cell lines [1]; MOLT-4, Adult T acute lymphoblastic leukemia): 2.87 µM
- IC50 (102 cell lines [1]; NCI-H460, Large cell lung carcinoma): 4.2 µM
- IC50 (102 cell lines [1]; RL, Diffuse large B-cell lymphoma, TP53 Mutant): > 31.6 µM
- IC50 (102 cell lines [1]; SNU-C2B, Cecum adenocarcinoma, TP53 Mutant): > 31.6 µM
- IC50 (102 cell lines [1]; SR, Anaplastic large cell lymphoma, TP53 Mutant): 2.04 µM
- IC50 (102 cell lines [1]; SW948, Colon adenocarcinoma, TP53 Mutant): > 31.6 µM
- IC50 (102 cell lines [1]; cell line ACHN, Papillary renal cell carcinoma, TP53 Wild-type): 3.3 µM
- IC50 (102 cell lines [1]; cell line AsPC-1, Pancreatic ductal adenocarcinoma, TP53 Mutant): > 31.6 µM
- IC50 (102 cell lines [1]; cell line Daoy, Medulloblastoma, TP53 Mutant): > 31.6 µM
- IC50 (102 cell lines [1]; cell line TT (Hereditary thyroid gland medullary carcinoma), TP53 Wild-type): 7.4 µM
- IC50 (102 cell lines [1]; cell line U-2 OS (Osteosarcoma), TP53 Wild-type): 13.3 µM
- Potency in responsive cell lines (102 cell lines [2]): micromolar potency
- IC50 (102 cell lines [3]; FaDu, Hypopharyngeal squamous cell carcinoma): > 31.6 µM
- IC50 (102 cell lines [3]; HCT 116, Colon carcinoma): 4.55 µM
- IC50 (102 cell lines [3]; HCT-15, Colon adenocarcinoma): > 31.6 µM
- IC50 (102 cell lines [3]; HL-60, Adult acute myeloid leukemia): > 31.6 µM
- IC50 (102 cell lines [3]; HT-1080, Fibrosarcoma): 2.06 µM
- IC50 (102 cell lines [3]; HT, Diffuse large B-cell lymphoma): > 31.6 µM
- IC50 (102 cell lines [3]; Hs 578T, Invasive ductal carcinoma): > 31.6 µM
- IC50 (102 cell lines [3]; Hs 746T, Gastric adenocarcinoma): > 31.6 µM
- IC50 (102 cell lines [3]; Hs 766T, Pancreatic adenocarcinoma): > 31.6 µM
- IC50 (102 cell lines [3]; HuTu 80, Duodenal adenocarcinoma): 3.91 µM
- IC50 (102 cell lines [3]; J82, Bladder carcinoma): > 31.6 µM
- IC50 (102 cell lines [3]; Jurkat E6.1, Childhood T acute lymphoblastic leukemia): > 31.6 µM
- IC50 (102 cell lines [3]; K-562, Chronic myelogenous leukemia): > 31.6 µM
- IC50 (102 cell lines [3]; KATO III, Signet ring cell gastric adenocarcinoma): 29.3 µM
- IC50 (102 cell lines [3]; KLE, Endometrial adenocarcinoma): > 31.6 µM
- IC50 (102 cell lines [3]; KU812, Chronic myelogenous leukemia): > 31.6 µM
- IC50 (102 cell lines [3]; LNCaP FGC, Prostate carcinoma): 10.9 µM
- IC50 (102 cell lines [3]; LS 174T, Colon adenocarcinoma): 3.7 µM
- IC50 (102 cell lines [3]; LS411N, Cecum adenocarcinoma): > 31.6 µM
- IC50 (102 cell lines [3]; LoVo, Colon adenocarcinoma): 10.2 µM
- IC50 (102 cell lines [3]; MCF7, Invasive ductal carcinoma): 11.4 µM
- IC50 (102 cell lines [3]; MG-63, Osteosarcoma): > 31.6 µM
- IC50 (102 cell lines [3]; MIA PaCa-2, Pancreatic ductal adenocarcinoma): > 31.6 µM
- IC50 (102 cell lines [3]; MeWo, Melanoma): > 31.6 µM
- IC50 (102 cell lines [3]; NCCIT, Testicular embryonal carcinoma): > 31.6 µM
- IC50 (102 cell lines [3]; NCI-H82, Small cell lung carcinoma): > 31.6 µM
- IC50 (102 cell lines [3]; NCI-H661, Large cell lung carcinoma): > 31.6 µM
- IC50 (102 cell lines [3]; OVCAR-3, High grade ovarian serous adenocarcinoma, TP53 Mutant): > 31.6 µM
- IC50 (102 cell lines [3]; PA-1, Ovarian mixed germ cell tumor, TP53 Wild-type): 2.31 µM
- IC50 (102 cell lines [3]; PC-3, Prostate carcinoma, TP53 Mutant): > 31.6 µM
- IC50 (102 cell lines [3]; PFSK-1, Primitive neuroectodermal tumor, TP53 Mutant): > 31.6 µM
- IC50 (102 cell lines [3]; RD, Embryonal rhabdomyosarcoma, TP53 Mutant): > 31.6 µM
- IC50 (102 cell lines [3]; RKO, Colon carcinoma, TP53 Wild-type): 15.7 µM
- IC50 (102 cell lines [3]; RL95-2, Endometrial adenosquamous carcinoma, TP53 Mutant): 24.6 µM
- IC50 (102 cell lines [3]; RPMI-7951, Melanoma, TP53 Mutant): > 31.6 µM
- IC50 (102 cell lines [3]; RS4-11, Adult B acute lymphoblastic leukemia, TP53 Wild-type): 4.71 µM
- IC50 (102 cell lines [3]; RT4, Bladder carcinoma, TP53 Wild-type): 7.03 µM
- IC50 (102 cell lines [3]; SHP-77, Small cell lung carcinoma, TP53 Mutant): 27.3 µM
- IC50 (102 cell lines [3]; SJCRH30, Alveolar rhabdomyosarcoma, TP53 Mutant): > 31.6 µM
- IC50 (102 cell lines [3]; SK-N-AS, Neuroblastoma, TP53 Wild-type): > 31.6 µM
- IC50 (102 cell lines [3]; SK-N-FI, Neuroblastoma, TP53 Mutant): > 31.6 µM
- IC50 (102 cell lines [3]; SNU-5, Gastric carcinoma, TP53 Mutant): > 31.6 µM
- IC50 (102 cell lines [3]; SU-DHL-1, Anaplastic large cell lymphoma, TP53 Mutant): 30.7 µM
- IC50 (102 cell lines [3]; SU-DHL-6, Diffuse large B-cell lymphoma, TP53 Mutant): 23.4 µM
- IC50 (102 cell lines [3]; SUP-T1, Childhood T lymphoblastic lymphoma, TP53 Mutant): > 31.6 µM
- IC50 (102 cell lines [3]; SW48, Colon adenocarcinoma, TP53 Wild-type): 7.63 µM
- IC50 (102 cell lines [3]; SW480, Colon adenocarcinoma, TP53 Mutant): > 31.6 µM
- IC50 (102 cell lines [3]; SW620, Colon adenocarcinoma, TP53 Mutant): 13.6 µM
- IC50 (102 cell lines [3]; SW626, Colon adenocarcinoma, TP53 Mutant): > 31.6 µM
- IC50 (102 cell lines [3]; SW837, Rectal adenocarcinoma, TP53 Mutant): > 31.6 µM
- IC50 (102 cell lines [3]; SW872, Liposarcoma, TP53 Mutant): > 31.6 µM
- IC50 (102 cell lines [3]; SW900, Squamous cell lung carcinoma, TP53 Mutant): > 31.6 µM
- IC50 (102 cell lines [3]; SW982, Biphasic synovial sarcoma, TP53 Wild-type): 3.11 µM
- IC50 (102 cell lines [3]; T24, Bladder carcinoma, TP53 Mutant): > 31.6 µM
- IC50 (102 cell lines [3]; T98G, Glioblastoma, TP53 Mutant): > 31.6 µM
- IC50 (102 cell lines [3]; cell line 769-P, Renal cell carcinoma, TP53 Wild-type): 5.52 µM
- IC50 (102 cell lines [3]; cell line 786-O, Renal cell carcinoma, TP53 Mutant): 13.4 µM
- IC50 (102 cell lines [3]; cell line 5637, Bladder carcinoma, TP53 Mutant): > 31.6 µM
- IC50 (102 cell lines [3]; cell line A375, Amelanotic melanoma, TP53 Wild-type): 6.9 µM
- IC50 (102 cell lines [3]; cell line A388, Squamous cell carcinoma, TP53 Mutant): > 31.6 µM
- IC50 (102 cell lines [3]; cell line A-172, Glioblastoma, TP53 Wild-type): 11.5 µM
- IC50 (102 cell lines [3]; cell line A-204, Embryonal rhabdomyosarcoma, TP53 Wild-type): 3.06 µM
- IC50 (102 cell lines [3]; cell line A-427, Lung adenocarcinoma, TP53 Wild-type): 5.36 µM
- IC50 (102 cell lines [3]; cell line A-498, Renal cell carcinoma, TP53 Wild-type): 5.59 µM
- IC50 (102 cell lines [3]; cell line A-549, Lung adenocarcinoma, TP53 Wild-type): 6.56 µM
- IC50 (102 cell lines [3]; cell line A-704, Renal cell carcinoma, TP53 Mutant): > 31.6 µM
- IC50 (102 cell lines [3]; cell line AN3 CA, Endometrial adenocarcinoma, TP53 Mutant): > 31.6 µM
- IC50 (102 cell lines [3]; cell line AU-565, Breast adenocarcinoma, TP53 Mutant): > 31.6 µM
- IC50 (102 cell lines [3]; cell line BT-20, Invasive ductal carcinoma, TP53 Mutant): > 31.6 µM
- IC50 (102 cell lines [3]; cell line BT-549, Invasive ductal carcinoma, TP53 Mutant): > 31.6 µM
- IC50 (102 cell lines [3]; cell line BxPC-3, Pancreatic ductal adenocarcinoma, TP53 Mutant): > 31.6 µM
- IC50 (102 cell lines [3]; cell line C-33 A, Cervical squamous cell carcinoma, TP53 Mutant): > 31.6 µM
- IC50 (102 cell lines [3]; cell line CAL 27, Tongue squamous cell carcinoma, TP53 Mutant): > 31.6 µM
- IC50 (102 cell lines [3]; cell line CCF-STTG1, Astrocytoma, TP53 Wild-type): 7.17 µM
- IC50 (102 cell lines [3]; cell line CCRF-CEM, Childhood T acute lymphoblastic leukemia, TP53 Mutant): > 31.6 µM
- IC50 (102 cell lines [3]; cell line COLO 205, Colon adenocarcinoma, TP53 Mutant): > 31.6 µM
- IC50 (102 cell lines [3]; cell line COLO 829, Cutaneous melanoma, TP53 Wild-type): 15.6 µM
- IC50 (102 cell lines [3]; cell line DB, Diffuse large B-cell lymphoma, TP53 Mutant): 28.6 µM
- IC50 (102 cell lines [3]; cell line DLD-1, Colon adenocarcinoma, TP53 Mutant): > 31.6 µM
- IC50 (102 cell lines [3]; cell line DU 145, Prostate carcinoma, TP53 Mutant): > 31.6 µM
- IC50 (102 cell lines [3]; cell line DU4475, Breast carcinoma, TP53 Wild-type): 4.62 µM
- IC50 (102 cell lines [3]; cell line DoTc2 4510, Cervical carcinoma, TP53 Wild-type): > 31.6 µM
- IC50 (102 cell lines [3]; cell line ES-2, Ovarian clear cell adenocarcinoma, TP53 Mutant): > 31.6 µM
- IC50 (102 cell lines [3]; cell line TCCSUP (Bladder carcinoma), TP53 Mutant): > 31.6 µM
- IC50 (102 cell lines [3]; cell line THP-1 (Childhood acute monocytic leukemia), TP53 Mutant): > 31.6 µM
- IC50 (102 cell lines [3]; cell line U-87 MG (Glioblastoma), TP53 Wild-type): 4.37 µM
- IC50 (102 cell lines [3]; cell line U-118 MG (Astrocytoma), TP53 Mutant): > 31.6 µM
- IC50 (102 cell lines [3]; cell line VA-ES-BJ (Epithelioid sarcoma), TP53 Wild-type): 1.73 µM
